Experiments:
[1] = test system: normal peripheral blood lymphocytes (PBL); assay: Viability of normal peripheral blood lymphocytes, erythrocin B exclusion assay; type: cell-based, human; conditions: FIG. 1
Bcl-2 and Bax = Bcl-2 and Bax levels after etodolac incubation; type: cell-based; conditions: data not shown
SW260 (Colon) = assay: Cytotoxicity by MTT assay, SW260; type: cell-based; conditions: 72 h, three days continuous exposure
CLL cells [2] = assay: Viability of CLL cells, erythrocin B exclusion assay
Bag-1 = Bag-1 level in LNCaP cells, SDS-PAGE immunoblot; type: cell-based; conditions: 100 μM, as early as two hours, FIG. 11B
A549 (Lung) = assay: Cytotoxicity by MTT assay, A549; type: cell-based; conditions: Homo sapiens, 72 h, three days continuous exposure
Mcl-1 = Mcl-1 level in LNCaP cells, SDS-PAGE immunoblot; type: cell-based; conditions: 100 μM, as early as two hours, LNCaP; FIG. 11A
HCT-116 (Colon) = assay: Cytotoxicity by MTT assay, HCT-116; type: cell-based; conditions: Homo sapiens, 72 h, three days continuous exposure
[3] = in vivo; cited from earlier work
MDA-MB-231 (Breast) = assay: Cytotoxicity by MTT assay, MDA-MB-231; type: cell-based; conditions: Homo sapiens, 72 h, three days continuous exposure
OVCAR-3 (Ovarian) = assay: Cytotoxicity by MTT assay, OVCAR-3; type: cell-based; conditions: Homo sapiens, 72 h, three days continuous exposure
normal B cells = assay: Viability of normal B lymphocytes (anti-CD19 staining, DiOC6 fluorescence); type: cell-based, human; conditions: 1.0 mM, 24 hours
Procedure: Then B lymphocytes were identified by staining with anti-CD19 antibody, and viability was assessed by DiOC6 fluorescence.

LNCaP-FGC (Prostate) = assay: Cytotoxicity by MTT assay, LNCaP-FGC; type: cell-based; conditions: 72 h, three days continuous exposure
Alva-31 (Prostate) = assay: Cytotoxicity by MTT assay, Alva-31; type: cell-based; conditions: 72 h, three days continuous exposure
CLL cells [4] = assay: Viability of CLL cells taken from patients before and after oral etodolac; type: in vivo, human; conditions: for in vitro survival of CLL cells after treatment compared to before treatment: 400 mg tablet, second tablet 12 hours later
Procedure: The circles show CLL cells before etodolac treatment. In FIGS. 6-7, the upward pointing triangles represent CLL cell viability after etodolac treatment, wherein the cells are dispersed in medium containing the pretreatment plasma. The downward pointing triangles are CLL cells after treatment maintained in medium with the post-treatment plasma. […] Cells were analyzed within 30 minutes in a Becton Dickinson FAC-Scalibur cytofluorometer. After suitable comprehension, fluorescence was recorded at different wavelength: DiOC6 and DHR at 525 nm (Fl-1) and PI at 600 nm (FL-3).

PC-3 (Prostate) = assay: Cytotoxicity by MTT assay, PC-3; type: cell-based; conditions: 72 h, three days continuous exposure
prostate cancer tissue = assay: Prostatectomy tissue samples incubated 72 hours, histology; type: cell-based
From the text: The tissues were next fixed in 4% paraformaldehyde in PBS, embedded in paraffin, sectioned and stained with hematoxylin and eosin.

CCc1cccc2c3c([nH]c12)C(CC)(CC(=O)O)OCC3 (racemic) [etodolac, 1,8-Diethyl-1,3,4,9-tetrahydropyrano[3,4-b]indole-1-acetic acid]
concentration at which significant death of normal PBLs occurred [1]: 800 µM
Bcl-2 and Bax levels (Bcl-2 and Bax): did not alter
IC50 (SW260 (Colon)): 1000 ± 120 µM
CLL cells killed (CLL cells [2]; 200 μM, 48 hour exposure, FIG. 2): 50%
cytotoxic effect on CLL cells, either drug alone (CLL cells [2]; fludarabine 10 nM or etodolac 10 μM alone, 48 hours, FIG. 3): ineffective
Bag-1 levels (Bag-1): fell
IC50 (A549 (Lung)): > 1000 µM
Mcl-1 levels (Mcl-1): fell
IC50 (HCT-116 (Colon)): 450 ± 15 µM
elimination half-life [3]: 6 to 8 h
IC50 (MDA-MB-231 (Breast)): > 1000 µM
IC50 (OVCAR-3 (Ovarian)): > 1000 µM
viability of normal B cells compared to control cultures (normal B cells): did not reduce the viability
IC50 (LNCaP-FGC (Prostate)): 400 ± 35 µM
IC50 (Alva-31 (Prostate)): > 1000 µM
in vitro survival of CLL cells after treatment compared to before treatment (CLL cells [4]; patient one, FIG. 7): less dramatic but similar effect
in vitro survival of CLL cells after treatment compared to before treatment (CLL cells [4]; patient two, FIG. 6): shortened survival
cell death by apoptosis (DiOC6 staining, dots in left lower box) after versus before treatment (CLL cells [4]; patient two, detectable at 12 hours, increases after 24 hours, FIG. 8): much higher
IC50 (PC-3 (Prostate)): 340 ± 20 µM
activity in prostatectomy samples (prostate cancer tissue): active
effect on normal basal cells in prostatectomy samples (prostate cancer tissue): did not affect normal basal cells
toxicity to tumor cells in prostatectomy samples (prostate cancer tissue; FIG. 15): selectively toxic to the tumor cells
